The source made the active and inactive calls.
Assays:
[1] = biological target: Beta-lactamase (Salmonella choleraesuis (strain SC-B67), UniProt Q5J463)
[2] = biological target: T1, Calpain-2 catalytic subunit (Sus scrofa, UniProt P43367); assay: m-calpain protease blockers, concentration series – biochemical, fluorogenic peptide substrate, dose response (AID 1420); format: functional
T1 sequence (P43367 whole entry): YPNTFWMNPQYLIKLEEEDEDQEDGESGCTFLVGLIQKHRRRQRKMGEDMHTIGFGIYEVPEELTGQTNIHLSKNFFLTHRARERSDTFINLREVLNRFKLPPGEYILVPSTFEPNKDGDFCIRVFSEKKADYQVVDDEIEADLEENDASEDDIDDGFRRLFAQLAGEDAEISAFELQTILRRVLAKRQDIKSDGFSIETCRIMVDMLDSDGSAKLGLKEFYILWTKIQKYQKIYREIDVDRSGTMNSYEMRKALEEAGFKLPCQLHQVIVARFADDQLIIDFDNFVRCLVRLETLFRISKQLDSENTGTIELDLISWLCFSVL

[3] = biological target: T2, ORF 73 (Human herpesvirus 8, UniProt O40947); assay: KSHV LANA DNA-binding disruption – biochemical, fluorescence polarization, cherry-picked samples, dose response (AID 504725); parameters: species or system Human gammaherpesvirus 8;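 note: fluorescence polarization of a labeled DNA duplex reporting LANA DNA binding; potency is for inhibitors that block LANA binding to the DNA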
T2 sequence (O40947 whole entry): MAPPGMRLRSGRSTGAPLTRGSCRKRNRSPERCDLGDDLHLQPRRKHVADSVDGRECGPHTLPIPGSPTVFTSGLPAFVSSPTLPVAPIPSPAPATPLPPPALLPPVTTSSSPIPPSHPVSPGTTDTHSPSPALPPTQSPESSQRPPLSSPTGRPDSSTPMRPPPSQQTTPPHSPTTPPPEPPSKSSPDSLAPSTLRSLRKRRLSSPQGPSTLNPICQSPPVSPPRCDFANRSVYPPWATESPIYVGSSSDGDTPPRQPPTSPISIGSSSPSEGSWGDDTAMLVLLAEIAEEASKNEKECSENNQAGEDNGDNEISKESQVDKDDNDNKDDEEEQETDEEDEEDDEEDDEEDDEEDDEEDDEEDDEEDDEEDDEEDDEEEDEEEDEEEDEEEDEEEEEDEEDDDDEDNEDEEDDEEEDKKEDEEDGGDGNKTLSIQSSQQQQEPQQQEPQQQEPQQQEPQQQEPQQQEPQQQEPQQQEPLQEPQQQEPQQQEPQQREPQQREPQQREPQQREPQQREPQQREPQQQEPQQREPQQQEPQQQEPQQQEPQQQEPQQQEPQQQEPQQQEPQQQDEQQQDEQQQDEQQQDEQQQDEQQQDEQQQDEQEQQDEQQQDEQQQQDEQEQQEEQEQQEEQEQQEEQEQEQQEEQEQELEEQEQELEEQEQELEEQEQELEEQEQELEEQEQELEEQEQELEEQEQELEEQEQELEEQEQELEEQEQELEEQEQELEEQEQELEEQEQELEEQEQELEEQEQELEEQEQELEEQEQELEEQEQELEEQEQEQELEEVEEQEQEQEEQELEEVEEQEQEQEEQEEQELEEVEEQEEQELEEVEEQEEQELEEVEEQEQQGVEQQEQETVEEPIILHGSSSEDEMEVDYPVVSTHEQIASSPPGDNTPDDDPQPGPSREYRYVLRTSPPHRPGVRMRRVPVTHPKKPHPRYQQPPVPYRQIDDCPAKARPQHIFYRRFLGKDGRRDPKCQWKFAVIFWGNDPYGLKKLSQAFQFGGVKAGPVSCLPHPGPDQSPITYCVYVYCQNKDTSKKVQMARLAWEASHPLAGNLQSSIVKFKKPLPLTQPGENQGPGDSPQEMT

[4] = biological target: Protein S100-A4 (Homo sapiens, UniProt P26447); assay: human S100A4 peptide interaction inhibition curves – biochemical, fluorescence polarization, cherry-picked hits, dose response (AID 687001); format: functional
[5] = biological target: Beta-lactamase (Pseudomonas aeruginosa, UniProt Q79MP6);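 note: biochemical dose-response test of metallo-beta-lactamase enzyme inhibition, read out by epi-absorbance; purified recombinant IMP-1 metallo-beta-lactamase with nitrocefin as substrate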
[6] = rise of 2N DNA cells, HeLa – IC50, dose response (AID 1117349); format: functional, cell-based
[7] = Counterscreen for activators of the function of SWI/SNF related, matrix associated, actin dependent regulator of chromatin, subfamily a, member 2 (SMARCA2, BRM): Luminescence-based cell-based high throughput dose response assay to identify non-selective compounds using the VP16 reporter assay.; format: functional
[8] = Reduced DLD-1 viability, concentration-response, CellTiter-Glo luminescence (AID 1117352); format: functional
[9] = biological target: SWI/SNF-related matrix-associated actin-dependent regulator of chromatin subfamily A member 2 (Homo sapiens, UniProt P51531); assay: Luminescence-based cell-based high throughput dose response assay to identify activators of the function of SWI/SNF related, matrix associated, actin dependent regulator of chromatin, subfamily a, member 2 (SMARCA2, BRM).; format: functional
[10] = loss of viability in HepG2 cells – cell-based, CellTiter-Glo, cherry-picked, cytotoxicity control for Shn3 inhibitor project, dose response (AID 624134); format: functional
[11] = rise of 4N DNA cells, HeLa – IC50, dose response (AID 1117351); format: functional, cell-based
[12] = SNU-C1 cell viability reduction, dose response, CellTiter-Glo luminescence (AID 1117323); format: functional, cell-based
[13] = reduction of Shn3 3'UTR-driven luciferase in osteoblasts – cell-based, Clone20 osteoblasts, firefly luciferase, cherry-picked, dose response (AID 624132); format: functional;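 note: firefly luciferase luminescence from reporter carrying the Shn3 3'UTR in osteoblasts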
[14] = cytotoxicity toward HT-29 cells – cell-based, CellTiter-Glo luminescence, IC50, dose response (AID 1117330); format: functional
[15] = Counterscreen for […] of the human trace amine associated receptor 1 (TAAR1): Fluorescence-based cell-based high throughput dose response assay to identify nonselective Ga16 agonists.; format: functional
[16] = Counterscreen for antagonists of the human trace amine associated receptor 1 (hTAAR1): Fluorescence-based cell-based high throughput dose response assay to identify nonselective Ga16 antagonists.; format: functional
[17] = biological target: T3, Heat shock factor protein 1 (Mus musculus, UniProt P38532); assay: decrease of HSF1-responsive luciferase luminescence – cell-based, NIH3T3, dose retest, confirmation (AID 2382); format: functional;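 note: NIH3T3 fibroblasts with HSF1-driven luciferase reporter stressed by proteasome inhibitor MG132; luminescence from HSF1-driven luciferase expression after 8 hours of MG132 stress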
T3 sequence (P38532 whole entry): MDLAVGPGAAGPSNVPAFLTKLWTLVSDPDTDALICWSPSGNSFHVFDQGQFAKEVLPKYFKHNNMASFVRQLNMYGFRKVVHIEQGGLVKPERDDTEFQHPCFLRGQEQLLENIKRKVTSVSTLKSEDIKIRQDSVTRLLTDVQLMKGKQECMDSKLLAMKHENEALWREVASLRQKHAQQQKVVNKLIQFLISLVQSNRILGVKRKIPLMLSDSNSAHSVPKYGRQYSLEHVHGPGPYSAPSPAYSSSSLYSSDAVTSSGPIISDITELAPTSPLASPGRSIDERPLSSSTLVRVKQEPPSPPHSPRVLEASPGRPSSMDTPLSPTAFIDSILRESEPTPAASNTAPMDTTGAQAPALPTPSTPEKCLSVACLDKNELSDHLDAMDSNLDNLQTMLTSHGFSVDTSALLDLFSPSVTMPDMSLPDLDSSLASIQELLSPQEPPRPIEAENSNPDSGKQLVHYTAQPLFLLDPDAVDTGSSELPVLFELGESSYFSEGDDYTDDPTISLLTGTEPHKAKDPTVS

[18] = biological target: T4, Nuclear receptor subfamily 0 group B member 1 (Homo sapiens, UniProt P51843); format: functional, cell-based;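 note: HEK293T cells transfected with SF-1 and DAX-1 plus StAR promoter luciferase reporter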
T4 sequence (P51843 whole entry): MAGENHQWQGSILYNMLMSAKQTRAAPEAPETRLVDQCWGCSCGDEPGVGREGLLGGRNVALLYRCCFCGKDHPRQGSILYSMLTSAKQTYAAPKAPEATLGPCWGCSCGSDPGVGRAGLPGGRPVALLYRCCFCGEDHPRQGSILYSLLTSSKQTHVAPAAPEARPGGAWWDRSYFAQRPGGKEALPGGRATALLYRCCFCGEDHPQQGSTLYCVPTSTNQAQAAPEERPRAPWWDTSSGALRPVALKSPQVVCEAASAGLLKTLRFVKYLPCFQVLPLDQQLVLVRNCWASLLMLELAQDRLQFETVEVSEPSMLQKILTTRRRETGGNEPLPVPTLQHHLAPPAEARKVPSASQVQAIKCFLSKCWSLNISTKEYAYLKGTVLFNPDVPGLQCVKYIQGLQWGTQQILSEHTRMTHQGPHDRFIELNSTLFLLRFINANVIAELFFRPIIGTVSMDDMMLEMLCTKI

[19] = cells; format: functional, cell-based
[20] = biological target: T5, Corticotropin-releasing factor receptor 2/Corticotropin-releasing factor-binding protein (Homo sapiens, UniProt P24387+Q13324); assay: Dose Response confirmation of uHTS hits for small molecule antagonists of the CRF-binding protein and CRF-R2 receptor complex.; format: functional; conditions: read-out: IC50_Mean
T5 sequence (Q13324 whole entry): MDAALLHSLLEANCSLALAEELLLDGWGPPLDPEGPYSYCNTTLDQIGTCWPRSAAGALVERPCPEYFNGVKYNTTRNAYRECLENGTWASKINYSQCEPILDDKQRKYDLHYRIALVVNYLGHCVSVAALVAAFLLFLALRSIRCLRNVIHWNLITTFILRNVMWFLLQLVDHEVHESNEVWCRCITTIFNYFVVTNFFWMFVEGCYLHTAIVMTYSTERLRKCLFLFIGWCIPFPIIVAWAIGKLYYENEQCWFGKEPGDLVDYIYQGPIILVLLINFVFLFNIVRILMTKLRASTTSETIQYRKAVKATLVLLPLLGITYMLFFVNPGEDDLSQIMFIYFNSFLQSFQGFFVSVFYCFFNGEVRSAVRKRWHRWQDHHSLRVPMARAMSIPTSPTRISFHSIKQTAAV
T5 sequence (P24387 whole entry): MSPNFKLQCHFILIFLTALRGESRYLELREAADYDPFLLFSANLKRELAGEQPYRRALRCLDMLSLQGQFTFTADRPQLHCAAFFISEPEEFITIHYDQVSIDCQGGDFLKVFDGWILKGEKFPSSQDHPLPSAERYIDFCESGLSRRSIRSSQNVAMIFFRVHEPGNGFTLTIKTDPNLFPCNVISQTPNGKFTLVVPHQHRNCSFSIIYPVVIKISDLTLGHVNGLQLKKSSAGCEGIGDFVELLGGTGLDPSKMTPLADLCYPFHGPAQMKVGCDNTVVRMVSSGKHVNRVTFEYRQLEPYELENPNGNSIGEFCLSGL

[21] = blockers of CRF-binding protein–CRF-R2 complex – cell-based, uHTS hits, 384-well, dose response (AID 651639); format: functional, Homo sapiens; conditions: read-out: IC50_Mean
[22] = biological target: T5, Corticotropin-releasing factor receptor 2/Corticotropin-releasing factor-binding protein; assay: activators of CRF receptor 2 with binding protein – uHTS hits, confirmation (AID 602473); format: functional; conditions: read-out: EC50_Mean
[23] = Counterscreen for inhibitors of Trypanosoma brucei methionyl tRNA synthetase (MetRS): Luminescence-based cell-based high throughput dose response assay to identify compounds that are cytotoxic to Jurkat human T lymphocyte cells.; format: functional
[24] = biological target: T6, Methionyl-tRNA synthetase, putative (Trypanosoma brucei brucei, UniProt Q38C91); format: functional, Trypanosoma brucei brucei strain 927/4 GUTat10.1
T6 sequence (Q38C91 whole entry): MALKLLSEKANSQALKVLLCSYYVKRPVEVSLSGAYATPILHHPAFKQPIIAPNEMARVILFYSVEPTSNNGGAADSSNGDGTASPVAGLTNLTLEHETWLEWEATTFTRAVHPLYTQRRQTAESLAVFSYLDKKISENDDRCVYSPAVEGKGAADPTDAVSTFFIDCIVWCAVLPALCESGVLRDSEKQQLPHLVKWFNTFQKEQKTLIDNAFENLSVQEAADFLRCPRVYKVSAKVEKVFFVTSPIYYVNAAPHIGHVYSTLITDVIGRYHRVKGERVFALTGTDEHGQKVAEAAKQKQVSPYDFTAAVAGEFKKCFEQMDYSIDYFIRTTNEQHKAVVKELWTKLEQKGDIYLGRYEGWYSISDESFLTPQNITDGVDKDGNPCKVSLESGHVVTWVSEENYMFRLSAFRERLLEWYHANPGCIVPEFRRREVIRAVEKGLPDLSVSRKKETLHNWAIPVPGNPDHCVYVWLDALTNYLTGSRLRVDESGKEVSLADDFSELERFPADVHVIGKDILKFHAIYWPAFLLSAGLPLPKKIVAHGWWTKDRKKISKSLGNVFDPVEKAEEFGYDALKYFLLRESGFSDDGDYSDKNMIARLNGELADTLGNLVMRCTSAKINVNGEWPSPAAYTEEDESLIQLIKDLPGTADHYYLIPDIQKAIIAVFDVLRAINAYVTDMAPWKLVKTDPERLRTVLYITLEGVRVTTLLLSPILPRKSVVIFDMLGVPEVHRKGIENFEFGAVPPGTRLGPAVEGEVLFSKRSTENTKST

[25] = biological target: T6, Methionyl-tRNA synthetase, putative; format: functional, Trypanosoma brucei brucei strain 927/4 GUTat10.1; remark: listed apart in the source

Protein S100-A4, sequence (P26447 whole entry): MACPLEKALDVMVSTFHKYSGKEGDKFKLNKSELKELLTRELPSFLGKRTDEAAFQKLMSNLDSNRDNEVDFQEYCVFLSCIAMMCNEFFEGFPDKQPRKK
Beta-lactamase (Pseudomonas aeruginosa, UniProt Q79MP6), sequence (Q79MP6 whole entry): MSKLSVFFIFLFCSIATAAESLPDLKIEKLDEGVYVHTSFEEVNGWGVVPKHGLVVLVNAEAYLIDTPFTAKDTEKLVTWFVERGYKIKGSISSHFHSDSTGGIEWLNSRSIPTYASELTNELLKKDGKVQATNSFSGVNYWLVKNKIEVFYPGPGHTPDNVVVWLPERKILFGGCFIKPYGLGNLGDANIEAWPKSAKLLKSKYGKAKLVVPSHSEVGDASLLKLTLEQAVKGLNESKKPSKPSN
Beta-lactamase (Salmonella choleraesuis (strain SC-B67), UniProt Q5J463), sequence (Q5J463 whole entry): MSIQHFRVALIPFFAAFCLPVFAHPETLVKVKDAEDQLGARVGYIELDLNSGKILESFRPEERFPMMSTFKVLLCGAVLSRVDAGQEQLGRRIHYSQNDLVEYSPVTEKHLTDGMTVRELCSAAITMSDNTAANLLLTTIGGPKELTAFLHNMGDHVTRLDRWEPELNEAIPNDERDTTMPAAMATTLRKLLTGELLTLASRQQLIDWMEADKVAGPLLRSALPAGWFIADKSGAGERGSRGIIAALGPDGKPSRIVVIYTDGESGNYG
SWI/SNF-related matrix-associated actin-dependent regulator of chromatin subfamily A member 2, sequence (P51531 whole entry): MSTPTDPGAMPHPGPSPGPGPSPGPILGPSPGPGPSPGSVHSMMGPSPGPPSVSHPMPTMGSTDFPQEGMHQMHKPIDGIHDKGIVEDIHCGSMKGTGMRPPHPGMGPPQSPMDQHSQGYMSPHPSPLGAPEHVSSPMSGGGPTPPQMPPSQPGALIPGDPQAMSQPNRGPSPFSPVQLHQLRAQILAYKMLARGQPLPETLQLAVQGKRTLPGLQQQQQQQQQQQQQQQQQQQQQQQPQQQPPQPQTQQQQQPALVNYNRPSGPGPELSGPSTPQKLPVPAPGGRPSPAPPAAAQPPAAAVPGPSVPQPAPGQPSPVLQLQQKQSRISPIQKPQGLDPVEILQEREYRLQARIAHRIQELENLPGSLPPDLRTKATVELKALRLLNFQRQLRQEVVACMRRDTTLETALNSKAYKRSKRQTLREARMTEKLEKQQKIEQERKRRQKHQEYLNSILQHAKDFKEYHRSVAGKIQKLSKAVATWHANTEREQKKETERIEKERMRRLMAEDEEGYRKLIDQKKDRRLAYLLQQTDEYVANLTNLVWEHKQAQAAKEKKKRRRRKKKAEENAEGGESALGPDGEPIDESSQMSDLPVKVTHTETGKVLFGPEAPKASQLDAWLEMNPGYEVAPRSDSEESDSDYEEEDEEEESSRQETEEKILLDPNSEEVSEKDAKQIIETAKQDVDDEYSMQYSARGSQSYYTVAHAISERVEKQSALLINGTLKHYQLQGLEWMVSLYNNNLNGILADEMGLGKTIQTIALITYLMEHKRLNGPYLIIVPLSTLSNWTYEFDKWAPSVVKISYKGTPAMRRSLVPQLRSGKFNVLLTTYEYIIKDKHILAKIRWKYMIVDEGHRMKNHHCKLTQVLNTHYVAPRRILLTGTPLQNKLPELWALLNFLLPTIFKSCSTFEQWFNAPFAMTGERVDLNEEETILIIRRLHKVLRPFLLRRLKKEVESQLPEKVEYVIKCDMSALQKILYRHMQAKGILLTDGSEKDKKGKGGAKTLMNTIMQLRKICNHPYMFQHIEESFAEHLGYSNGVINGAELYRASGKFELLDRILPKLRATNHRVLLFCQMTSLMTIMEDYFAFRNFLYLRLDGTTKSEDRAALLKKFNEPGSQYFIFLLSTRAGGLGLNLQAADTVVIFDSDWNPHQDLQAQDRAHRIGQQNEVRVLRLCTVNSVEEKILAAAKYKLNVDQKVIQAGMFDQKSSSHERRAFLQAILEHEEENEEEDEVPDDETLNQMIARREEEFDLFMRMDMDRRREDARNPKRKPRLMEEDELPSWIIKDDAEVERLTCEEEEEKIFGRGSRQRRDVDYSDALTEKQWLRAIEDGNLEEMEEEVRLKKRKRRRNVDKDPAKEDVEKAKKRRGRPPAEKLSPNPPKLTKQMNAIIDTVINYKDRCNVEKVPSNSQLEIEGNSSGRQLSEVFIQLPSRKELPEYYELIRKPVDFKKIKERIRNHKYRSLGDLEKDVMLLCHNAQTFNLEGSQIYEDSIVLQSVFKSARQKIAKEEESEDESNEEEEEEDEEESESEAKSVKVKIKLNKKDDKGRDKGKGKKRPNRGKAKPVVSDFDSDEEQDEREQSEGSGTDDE

CCOC(=O)C1CCCN(c2ccc([N+](=O)[O-])c3nonc23)C1 (stereo not drawn)
IC50 [1]: 10.5 µM (inactive) | IC50 [2]: 19 µM (not active) | AC50 [3]: 4.35 µM (active) | AC50 [4]: 0.505 µM (active) | IC50 [5]: 37.1 µM (inactive)

CC(C)n1c(/C=C/[C@@H](O)C[C@@H](O)CC(=O)O)c(-c2ccc(F)cc2)c2ccccc21 [FLUVASTATIN SODIUM]
IC50 [6]: > 10 µM (inactive) | EC50 [7]: > 91.1 µM (inactive) | IC50 [8]: > 20 µM (inactive) | EC50 [9]: > 91.1 µM (inactive) | AC50 [10]: > 70 µM (inactive) | IC50 [11]: > 10 µM (inactive) | IC50 [12]: > 20 µM (inactive) | AC50 [13]: 2.4 µM (active) | IC50 [14]: > 20 µM (inactive)

Cc1coc(NC(=O)CSc2nc(-c3ccc(Cl)cc3)cc(C(F)(F)F)c2C#N)n1
EC50 [15]: > 29.9 µM (inactive) | IC50 [16]: > 29.9 µM (inactive) | EC50 [17]: > 195 µM (not active)

COc1cc2ccccc2cc1C(=O)Nc1cc(C)ccn1
IC50 [18]: > 67.6 µM (inactive) | IC50 [19]: > 67.6 µM (inactive)

CCOC(=O)Oc1ccc2c(=O)c(Oc3cccc(C)c3)coc2c1
IC50 [20]: 0.61 µM (active) | IC50 [21]: > 20 µM (inactive) | EC50 [22]: > 53 µM (inactive)

CC1CC(C)CN(C(=O)CSc2nc(Cc3cccs3)nc3ccccc23)C1 (stereo not drawn)
IC50 [20]: 6.34 µM (active) | IC50 [21]: 5.99 µM (active) | EC50 [22]: > 53 µM (inactive)

Cc1ccc(CNC(=O)CSc2n[nH]c3c4ccccc4nc-3n2)cc1
IC50 [23]: 83.3 µM (inactive) | IC50 [24]: 119 µM (inactive) | IC50 [25]: 3.38 µM (active)
